Source: PMC12488480, “A missing enzyme-rescue metabolite as cause of a rare skeletal dysplasia” (Nature, 2025)

Assays:
Format in all cases: biochemical
[1] = biological target: T1, UXS1 (UDP-xylose synthase) (Homo sapiens, UniProt Q8NBZ7); assay: NaBH4 reduction of enzyme-bound NAD+ in recombinant UXS1, LC-MS of NADH and activity
T1 sequence (Q8NBZ7 1-420): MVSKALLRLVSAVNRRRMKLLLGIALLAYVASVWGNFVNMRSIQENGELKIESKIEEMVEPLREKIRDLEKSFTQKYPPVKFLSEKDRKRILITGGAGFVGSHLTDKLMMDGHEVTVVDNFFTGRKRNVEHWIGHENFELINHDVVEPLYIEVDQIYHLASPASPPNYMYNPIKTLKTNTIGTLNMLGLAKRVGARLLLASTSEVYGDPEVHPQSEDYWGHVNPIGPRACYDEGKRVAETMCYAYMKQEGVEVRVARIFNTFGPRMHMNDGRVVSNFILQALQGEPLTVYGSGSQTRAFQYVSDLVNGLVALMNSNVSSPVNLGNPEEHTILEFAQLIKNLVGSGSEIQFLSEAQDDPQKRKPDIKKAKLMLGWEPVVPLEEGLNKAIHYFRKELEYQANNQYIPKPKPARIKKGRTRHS

[2] = biological target: T2, TGDS (dTDP-D-glucose 4,6-dehydratase) (Homo sapiens, UniProt O95455); assay: Recombinant enzyme assay, LC-MS
T2 construct: N-terminal hexahistidine-tag fused to amino acid 15 of TGDS
T2 sequence (O95455 15-350): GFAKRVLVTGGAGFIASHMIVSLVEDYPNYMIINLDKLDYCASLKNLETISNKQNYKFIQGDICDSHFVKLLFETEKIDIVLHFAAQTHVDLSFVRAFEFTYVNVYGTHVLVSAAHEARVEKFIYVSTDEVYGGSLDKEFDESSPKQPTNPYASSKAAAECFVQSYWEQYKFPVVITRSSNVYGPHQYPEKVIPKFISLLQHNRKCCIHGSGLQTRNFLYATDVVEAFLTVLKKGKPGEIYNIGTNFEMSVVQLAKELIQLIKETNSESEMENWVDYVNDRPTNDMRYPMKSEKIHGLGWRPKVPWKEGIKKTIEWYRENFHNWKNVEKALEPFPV

[3] = biological target: T1, UXS1 (UDP-xylose synthase); assay: Recombinant enzyme assay, LC-MS

## NC(=O)C1=CN([C@@H]2O[C@H](COP(=O)(O)OP(=O)(O)OC[C@H]3O[C@@H](n4cnc5c(N)ncnc54)[C@H](O)[C@@H]3O)[C@@H](O)[C@H]2O)C=CC1 [NADH]
[1]
  NaBH4 reduction of enzyme-bound NAD+ in recombinant UXS1, LC-MS of NADH and acti: This led to tenfold lower levels of NAD^+ and a concomitant increase in NADH

## C[C@H]1O[C@H](OP(=O)(O)OP(=O)(O)OC[C@H]2O[C@@H](n3ccc(=O)[nH]c3=O)[C@H](O)[C@@H]2O)[C@H](O)[C@@H](O)C1=O [UDP-4k6dG, UDP-4-keto-6-deoxyglucose]
[2]
  Recombinant enzyme assay, LC-MS: TGDS produced a metabolite with identical m/z, elution time and hydration status as UDP-4-keto-6-deoxyglucose produced by fungal UG46DH

## O=c1ccn([C@@H]2O[C@H](COP(=O)(O)OP(=O)(O)O[C@H]3OC[C@@H](O)[C@H](O)[C@H]3O)[C@@H](O)[C@H]2O)c(=O)[nH]1 [UDP-Xyl, UDP-xylose]
[3]
  Recombinant enzyme assay, LC-MS: We observed an almost complete recovery of UDP-xylose production, an increase of NAD^+
